Source: patent US10570140B2, “Selective inhibitors of protein arginine methyltransferase 5 (PRMT5)” (Prelude Therapeutics, Incorporated, priority 2017, dated 2020)
Counter-ions that a name gives are not always drawn.

How the values were obtained:
[1] = tested on: sDMA; experiment: sDMA levels in tumor samples of Granta-519 mouse xenograft (WB); assay type: in vivo
Protocol: (§1) Granta-519 cells was maintained in DMEM medium supplemented with 10% fetal bovine serum and 2 mM L-Glutamine at 37° C. in an atmosphere of 5% CO2 in air. Cells in exponential growth phase were harvested and 1×10^7 cells in 0.1 mL of PBS with Matrigel (1:1) were injected subcutaneously at the right lower flank region of each mouse for tumor development. The treatments were started when the mean tumor size reaches approximately 300-400 mm^3. […] Example 47 or vehicle (0.5% Na CMC+0.5% Tween80, suspension) were administered orally (QD for Example 47, QD for vehicle) at a dose of 30 mg/kg and 50 mg/kg for 19 and 16 days, respectively. Body weights and tumor size were measured every 3 to 4 days after randomization. Animals were euthanized 12 hours after last dosing, and blood and tumor samples were collected for analysis.
To measure sDMA levels in tumor samples, tumors from each mouse were weighted and homogenized in RIPA buffer supplemented with protease inhibitor (cOmplete™, EDTA-free Protease Inhibitor Cocktail, Roche). Lysate were centrifuged at 14,000 rpm for 30 min at 4° C. to remove debris. Total protein concentrations of lysate were determined by BCA assay (ThermoFisher Scientific, Catalog #: 23225). Equal amount of total proteins from each tumor were separated on SDS-PAGE gel, and sDMA levels were determined by WB as described previously.

[2] = Rat non-crossover PK study; assay type: in vivo
Protocol: In Vivo Pharmacokinetic Properties of Example 47.
In a rat (SD, male, non-fasted) non-crossover PK study, Example 47 was dosed at 1 mg/kg (DMA: 20% HPBCD=5:95, solution) via i.v. administration (N=3) and 1 mg/kg (0.5% Na CMC+0.5% Tween80, solution) via oral gauge (p.o.) (N=3).

[3] = target: PRMT5/MEP50 complex (Homo sapiens (Human), UniProt O14744); experiment: PRMT5 biochemical assay (3H-SAM filter plate, histone H2A substrate); conditions: PRMT5/MEP50 5 nM, histone H2A 5 μM, SAM 1 μM; read-out: PRMT5 IC50
Protocol: Biochemical Assay Protocol
Compounds were solubilized and 3-fold diluted in 100% DMSO. […] Standard reactions were performed in a total volume of 50 μl in assay buffer, with histone H2A (5 μM final) as substrate. To this was added the PRMT5/MEP50 complex diluted to provide a final assay concentration of 5 nM and the compounds were allowed to preincubate for 15 to 20 minutes at room temperature. The reaction was initiated by adding S-[3H-methyl]-adenosyl-L-methionine (PerkinElmer) to final concentration of 1 μM. Following a 60 minutes incubation at 30° C., the reaction was stopped by adding 100 μL of 20% TCA. Each reaction was spotted onto filter plate (MultiScreen FB Filter Plate, Millipore), and washed 5 times with PBS buffer, Scintillation fluid was added to the filter plate and read in a scintillation counter. IC50 values were determined by fitting the data to the standard 4 parameters with Hill Slope using GraphPad Prism software.

[4] = tested on: Granta-519 cells; experiment: Cell proliferation assay on Granta-519 cells (CCK-8, day 10); assay type: cell-based; conditions: Homo sapiens, 240 h, Granta-519 cell line, read-out: Prolif. IC50
Protocol: Cell Proliferation Assay to Determine IC50 on Granta-519 Cells
Granta-519 cells were maintained in PRMI 1640 (Corning Cellgro, Catalog #: 10-040-CV) medium supplemented with 10% v/v FBS (GE Healthcare, Catalog #: SH30910.03). Compounds were dissolved in DMSO to make 10 mM stocks and stored at −20° C. Nine-point, 3-fold serial dilutions were made with DMSO with top concentration at 1 mM (working stocks).
On day of experiment, compound working stocks were further diluted at 1:50 with fresh medium in 96 well plate, and 10 μL of diluted drugs were added to a new 96 well plate for proliferation assay. Cells growing at exponential phase were spun down at 1500 rpm for 4 min and resuspend in fresh medium to reach a density of 0.5×10^6 cells/ml. 200 ul of cells were added to 96 well plate containing diluted drugs and incubated for 3 days. DMSO was used a vehicle control.
One day 3, 10 μL of Cell Counting Kit-8 (CCK-8, Jojindo, CK04-13) solution was added to a new 96 well plate. Cells incubated with drugs for 3 days were resuspended by pipetting up and down, and 100 μL of cells were transferred to 96 well plate containing CCK-8 reagent to measure viable cells. Plates were incubated in CO2 incubator for 2 hours and OD450 values were measured with a microplate reader (iMark microplate reader, Bio-Rad).
For re-plating, compound working stocks were diluted at 1:50 with fresh medium and 10 μL of diluted drugs were added to a new 96 well plate. Cells from Day 3 plate (50 ul) were added to 96 well plate containing fresh drug and additional 150 μL of fresh medium was added to reach 200 μL volume. Plate was returned to CO2 incubator and incubated for 3 more days. Viable cells measurement and re-plating were repeated on day 6, and the final viable cells measurement was taken on day 10.
Percentage of viable cells, relative to DMSO vehicle control, were calculated and plotted in Graphpad Prism ([Inhibitor] vs. normalized response−Variable slope) to determine proliferation IC50 values on day 10.

[5] = tested on: Granta-519; experiment: Tumor growth inhibition in Granta-519 mouse xenograft model; assay type: in vivo
Protocol: In Vivo Pharmacodynamic Effect and Tumor Growth Inhibition of Example 47 in Granta-519 Mouse Xenograft Model.
as §1

[6] = Body weight in Granta-519 mouse xenograft study; assay type: in vivo
Protocol: as §1

[7] = tested on: sDMA; experiment: Western blot for symmetric di-methyl arginine (sDMA) IC50 in Granta cells; assay type: cell-based; conditions: Homo sapiens, 72 h; Granta-519 cell line, 3 days
[8] = physchem; conditions: FaSSIF buffer, 25 °C, thermodynamic from solid

PRMT5/MEP50 complex, sequence (O14744 whole entry): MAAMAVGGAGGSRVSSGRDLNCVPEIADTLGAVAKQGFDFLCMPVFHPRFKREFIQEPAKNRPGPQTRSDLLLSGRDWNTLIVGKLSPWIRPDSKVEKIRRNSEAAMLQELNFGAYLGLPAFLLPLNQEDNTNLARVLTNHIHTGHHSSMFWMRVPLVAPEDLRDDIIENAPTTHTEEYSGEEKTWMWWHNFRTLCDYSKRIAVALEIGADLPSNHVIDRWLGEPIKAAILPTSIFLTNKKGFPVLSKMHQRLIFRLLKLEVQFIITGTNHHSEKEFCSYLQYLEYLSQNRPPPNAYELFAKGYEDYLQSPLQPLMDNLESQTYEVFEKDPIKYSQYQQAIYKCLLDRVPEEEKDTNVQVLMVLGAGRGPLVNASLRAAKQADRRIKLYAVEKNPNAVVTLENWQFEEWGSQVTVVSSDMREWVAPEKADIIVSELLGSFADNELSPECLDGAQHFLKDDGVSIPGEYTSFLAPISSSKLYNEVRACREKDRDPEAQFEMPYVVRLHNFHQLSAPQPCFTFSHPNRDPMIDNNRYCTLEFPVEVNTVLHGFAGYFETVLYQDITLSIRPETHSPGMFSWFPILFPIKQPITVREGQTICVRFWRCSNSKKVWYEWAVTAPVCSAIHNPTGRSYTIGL
PRMT5/MEP50 complex, sequence (Q9BQA1 whole entry partner): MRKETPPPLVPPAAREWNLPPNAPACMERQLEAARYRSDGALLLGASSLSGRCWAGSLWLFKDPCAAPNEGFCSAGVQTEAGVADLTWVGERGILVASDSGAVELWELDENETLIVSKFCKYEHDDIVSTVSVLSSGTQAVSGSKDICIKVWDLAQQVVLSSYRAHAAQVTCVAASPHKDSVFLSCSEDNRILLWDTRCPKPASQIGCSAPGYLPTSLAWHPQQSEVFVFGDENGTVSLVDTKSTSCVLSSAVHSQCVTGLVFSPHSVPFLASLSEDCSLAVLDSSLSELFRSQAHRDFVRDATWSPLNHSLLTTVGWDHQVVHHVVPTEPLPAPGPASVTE

Row | half-life ([2]; blood, iv, rat (SD, male, non-fasted), 1 mg/kg i.v., average) [h] | Vd ([2]; male, SD, blood, iv, rat, 1 mg/kg i.v., average, read-out: Vss) [L/kg] | bioavailability ([2]; male, SD, blood, po, rat, 1 mg/kg p.o.) [%] | clearance ([2]; male, SD, whole blood, iv, rat, 1 mg/kg i.v., average) [mL/min/kg] | dose normalized AUC ([2]; rat, 1 mg/kg p.o., average) [ng·kg·h/mL/mg] | IC50 [3] [nM] | IC50 [7] [nM] | solubility at 4 h [8] [µg/mL] | SMILES | sDMA in tumor ([1]; 50 mg/kg) | inhibition at 30 mg/kg ([1]; Mus musculus, Granta-519, 30 mg/kg) [%] | IC50 [4] [nM] | tumor growth inhibition ([5]; 30 mg/kg orally QD, 19 days, average (N=5)) [%] | tumor growth inhibition ([5]; 50 mg/kg orally QD, 16 days, average) [%] | body weight loss ([6]; 30 mg/kg orally QD, 19 days) [%] | body weight loss ([6]; 50 mg/kg orally QD, 16 days) [%]
1 | 4.1 | 3.1 | > 100 | 8.8 | 3246 | 1.5 | 31 |  | C[C@@]1(O)[C@@H]([C@H](O)c2ccc(Cl)c(Cl)c2)O[C@@H](n2ccc3c(N)ncnc32)[C@@H]1O [Example 47, (2R,3S,4R,5R)-5-(4-amino-7H-pyrrolo[2,3-d]pyrimidin-7-yl)-2-((R)-(3,4-dichlorophenyl)(hydroxy)methyl)-3-methyltetrahydrofuran-3,4-diol] | no detectable sDMA | > 90 | 75 | 46 | 79 | 1 | 8
2 |  |  |  |  |  |  |  | 206 | C[C@@]1(O)[C@@H]([C@H](O)c2ccc(Cl)c(Cl)c2)O[C@@H](n2ccc3c(N)ncnc32)[C@@H]1O [Example 48, (2R,3S,4R,5R)-5-(4-amino-7H-pyrrolo[2,3-d]pyrimidin-7-yl)-2-((R)-(3,4-dichlorophenyl)(hydroxy)methyl)-3-methyltetrahydrofuran-3,4-diol Sulfate Salt] |  |  |  |  |  |  | 
